Laboratory results from US10242153B2, “Method for determining the risk profile of neoplastic tissue” (NOVAZOI THERANOSTICS, priority 2014, dated 2019).

How the values were obtained:
N1E-115 cells [1] = assay: Neuritogenesis (neurite extension) in serum-starved N1E-115 cells; type: cell-based, murine; conditions: 48 h, PJ-34 10 μM, Paclitaxel 0.05 μM
Method: N1E-115 cells grown in serum-starved (SS) medium were evaluated to determine the extent of neurite formation after 48 h of treatment with RedBr-Nos (5 μM), Griseofulvin (10 μM), PJ-34 (10 μM), Paclitaxel (0.05 μM) treatment or untreated control cells (i.e., serum-starved medium (SS) alone). Panels Ai and Aii depict quantitative bar graphs representing the average length of neurites and percentage of population of cells showing neurite length >10 μm, respectively. A hundred cells were counted in each case. […] Panel B depicts an immunoblot showing CLASP1 expression levels in control (C) and CLASP1 siRNA-transfected N1E-115 cells.
Neuritogenesis is a process in nerve cells involving the extension of polarized, elongated neurites. N1E-115 cells usually extend only one major neurite per cell, which can vary in length from 5 to 500 μm. The growth cones of the neurites serve as primary focal points of motility. The effect of declustering agents on cell motility was evaluated by assessing the length and frequency of neurites formed in a serum-free medium on a laminin-coated surface.

[2] = tested on: adult human dermal fibroblasts (HDFs); assay: Centrosome amplification (CA) by microscopy, HDFs; type: cell-based; conditions: for peak CA: interphase HDFs
Method: (§1) Consequently, CA was assessed in cultures treated with different concentrations of declustering drugs for 6, 12, 18, or 24 h and untreated controls via microscopy. Centrosomes were identified by γ-tubulin and centrin-2 colocalization at discrete foci.
To determine whether the CA-inducing activity of declustering drugs is restricted to cancer cells, two non-malignant cell lines, mammary fibrocystic (MCF10A) cells and adult human dermal fibroblasts (HDFs) were treated with these drugs. […] In comparison, 10 and 25 µM RBN increased peak CA over controls in interphase cells (p<0.001 and p=0.001, respectively), with the lower concentration dramatically augmenting peak CA to 56% of cells versus 15% for the higher dose (FIG. 13, panel B).

HeLa cells = assay: Peak subG1 fraction by flow cytometry after declustering drugs, HeLa cells; type: cell-based
Method: To evaluate the impact of putative declustering drugs on cell cycle progression and hypodiploidy (<2N DNA content, which may indicate apoptotic cells), MDA-MB-231 (231), PC3, and HeLa cells were treated with different concentrations of declustering drugs, stained with propidium iodide, labeled with anti-MPM2 antibody, and then assessed by flow cytometry at multiple time points over 48 hr. […] The duration, highest degree, and rapidity of onset of MA varied between drugs, drug concentrations, and cell lines (data not shown). In general, the maximum MA achieved was less pronounced in Nos- and PJ-treated cells. Drug-induced onset of MA was corroborated by substantial increases in cyclin B1 levels in all cell lines. For most cases, prolonged MA (˜24 hr in duration) was followed by a substantial increase in the subG1 population fraction. […] Instances where the subGl fraction was elevated without cleaved caspase-3 may either represent caspase-independent cell death or the presence of hypodiploid cells whose fate is unclear. In general, no consistent associations between the extent, duration, or timing of MA within drugs or across cell lines was found.

N1E-115 cells [3] = assay: Vinculin localization in serum-starved N1E-115 cells; type: cell-based, murine; conditions: serum-starved (SS) cells
Description: Vinculin stabilizes cell-substrate contacts in neuronal cells undergoing neuritogenesis, while activation by actin-binding proteins mobilizes vinculin to focal adhesions. To determine the localization of vinculin in the neurite extensions and the effect of declustering agents on its localization, N1E-115 cells were immunostained cells for vinculin and stained F-actin using rhodamine-phalloidin.

N1E-115 cells [4] = assay: Ki67 and cleaved caspase-3 immunostaining of serum-starved N1E-115 cells; type: cell-based, murine; conditions: RedBr-Nos 5 μM, Griseofulvin 10 μM, PJ-34 10 μM
N1E-115 cells [5] = assay: Interphase declustering index (DI) in N1E-115 cells; type: cell-based, murine; conditions: 6-h treatment, 25 interphase cells, drugs at their respective IC50 concentrations
Method: To evaluate their effect on interphase clustering, N1E-115 cells were treated with these drugs at their respective IC50 concentrations for 0, 3, 6 and 9 h and co-immunostained for γ-tubulin and α-tubulin to evaluate centrosomal spread and microtubule nucleation status, respectively.
Cell cycle phases were further evaluated via lamin A/C immunostaining to distinguish interphase declustering events from prophase centrosomal spread. To quantitate the spread of the interphase centrosomal cluster, a 3D reconstruction of z-stack images of 25 randomly-selected interphase cells from the 6-h treatment group of each drug were generated. By defining an ROI (region of interest) around the interphase centrosomal cluster, the volume of the cluster spread was calculated using Volocity software. Likewise, defining an ROI using the cell periphery provided the cell volume.

[6] = tested on: ZR-75-30 cells with amplified centrosomes (ZR-A); assay: Sub-G1 population in ZR-75-30 cells with amplified centrosomes (ZR-A) versus parent cells; type: cell-based; conditions: 25 μM, 48 h
Method: Panel A depicts representative DNA histograms comparing cell-cycle kinetics of ZR-75-30 cells and ZR-A cells treated with bromonoscapine (BN, 25 μM), griseofulvin (GF, 25 μM) or PJ34 (25 μM), respectively for 48 h. […] Panel B depicts a quantitative comparison of sub-G1 population in ZR-75-30 and ZR-A cells upon treatment with the three drugs with the same concentration (25 μM) for the same duration (48 h).
Accordingly, these cells can be pharmacologically manipulated with aphidicolin to generate extra centrosomes. […] Following aphidicolin wash-out, cells were stained using anti-centrin-2 antibodies to verify extra centrosomes by immunofluorescence confocal microscopy. About ˜60% ZR-75-30 cells generated extra centrosomes (6-8 per cell) and were evaluated for their sensitivity to the three drugs, griseofulvin, bromonoscapine, and PJ34, and compared with parent ZR-75-30 cells with normal centrosomes.

231, HeLa and PC3 cells = assay: Centrosome amplification (CA) by microscopy across cancer cell lines; type: cell-based; conditions: 25 μM
Method: as §1
The peak percent CA detected over 24 h is shown in FIG. 13 (only statistically significant (P<0.05) increases over control values are represented in the Figures).
To better understand the “potency” of drug-induced CA with time, the average fold change in CA over controls over 24 h was assessed (FIG. 12, panel A), whereby the extent of CA across time points (i.e., 6, 12, 18, and 24 hr) was averaged and then divided by the extent of CA in control (i.e., 0 hr). All of the drugs at least doubled the peak extent of CA in all cell lines tested (FIG. 12, panel A), although the final extent of CA could be small or large in magnitude depending on the initial centrosomal burden as shown in FIG. 11. […] The extent of CA was less in interphase cells, with maximum values of 31% and 87% for 10 and 25 μM RBN (FIG. 13, panel A). […] The peak extent in interphase HeLa cells was somewhat less at 30.7% and 48.1% for 10 and 25 μM RBN, respectively (FIG. 13, panel A). For Nos and BN, there was no major difference in CA levels in interphase versus mitotic cells.

[7] = tested on: human ovarian cancer xenografts; conditions: nude mice carrying human ovarian cancer xenografts; cited from earlier work

Molecule | inhibition of neurite extension (N1E-115 cells [1]) | extent of CA over controls ([2]; HDFs, any of the concentrations or time points assessed) | Peak subG1 percents over 48 h (HeLa cells; 10 μM) [%] | maximum (peak) subG1 fraction relative to control (HeLa cells; 10 μM) [× control] | Peak subG1 percents over 48 h (HeLa cells; 25 μM) [%] | vinculin localization and focal adhesion points (N1E-115 cells [3]) | Ki67-positive cells (N1E-115 cells [4]) | interphase declustering index (DI): ratio of average cluster volume to average cell volume (N1E-115 cells [5]) | sub-G1 population versus parent ZR-75-30 cells [6] | induction of CA (231, HeLa and PC3 cells) | toxicity in normal tissues [7] | tumor progression [7] | peak CA ([2]; 10 μM) | peak CA ([2]; 25 μM) [%] | extent of CA ([2]; mitotic HDFs, 10 μM) [%] | extent of CA versus controls ([2]; mitotic HDFs, 25 μM)
CN(C)CC(=O)Nc1ccc2[nH]c(=O)c3ccccc3c2c1 [PJ, PJ-34] | moderate inhibition | no significant impact on CA | 48.5 | 4.8 | 64.4 | less severe | high proportion of Ki67-positive cells | 0.14 | much higher sub-G1 population compared to parent ZR-75-30 cells | – | – | – | – | – | – | –
reduced-9-bromonoscapine [RBN] | – | – | 54.1 | 9 | 75.6 | complete internalization of vinculin and complete loss of focal adhesion points | high proportion of Ki67-positive cells | 0.36 | – | induced CA in all three cell lines | toxicity was not detected | inhibited tumor progression | 56 % of cells | 15 | 10 | Only 10 but not 25 μM RBN increased the extent of CA in mitotic cells
